# From US20230329236A1, “HERBICIDAL PYRIMIDINE DERIVATIVES” (MoA Technology Limited, priority 2020, published 2023)
# How the values were obtained:
# [1] = test system: Lolium multiflorum (LOLMU); test: Post-emergence glasshouse test, visual injury, LOLMU; type: in vivo; conditions: 336 h, Table 3, post-emergence, 14±1 days post application
# Outline: (§1)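 Percent visual injury relative to untreated plots is scored 14±1 days after treatment. Plants grow in sandy loam under controlled glasshouse conditions and are sprayed at BBCH 12-14 with an aqueous solution of compound in acetone/water (50:50) with 0.5% Tween 20, dosed in g/ha.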
# [2] = test system: Echinochloa crus-gaffi (ECHCG); test: Post-emergence glasshouse test, visual injury, ECHCG; type: in vivo, Echinochloa crus-galli; conditions: 336 h, Table 3, post-emergence, 14±1 days post application
# Outline: as §1
# Veronica persica (VERPE) = test: Post-emergence glasshouse test, visual injury, VERPE; type: in vivo; conditions: 336 h, 14±1 days post application
# Outline: as §1
# [3] = test system: Amaranthus retroflexus (AMARE); test: Post-emergence glasshouse test, visual injury, AMARE; type: in vivo; conditions: 336 h, 14±1 days post application
# Outline: as §1
# Glycine max (GLXMA) = test: Post-emergence glasshouse test, visual injury, GLXMA; type: in vivo; conditions: Table 4, post-emergence, 14±1 days post application
# Protocol: (§2) Seeds of a variety of test species are grown in a sandy loam soil mixture, Lolium multiflorum (LOLMU), Amaranthus retroflexus (AMARE), Echinochloa crus-gaffi (ECHCG), Veronica persica (VERPE), Glycine max (GLXMA), Oryza sativa (ORYSA), Zea mays (ZEAMX), spring wheat (TRZAS), Ipomoea hederacea (IPOHE), Ipomoea purpurea (PHBPU), Stellaria media (STEME), Solanum nigrum (SOLNI), Digitaria sanguinalis (DIGSA), Setaria italica (SETIT), Alopecurus myosuroides (ALOMY) and Avena fatua (AVEFA).
# (§3) After sowing, at growth stage BBCH 12-14 (post-emergence), the plants are sprayed with an aqueous spray solution derived from the formulation of the technical active ingredient in acetone/water (50:50) solution containing 0.5% Tween 20 (polyoxyethlyene sorbitan monolaureate, CAS RN 9005-64-5). The test compounds are applied at the required concentration of active ingredient in g/ha. The test plants are then grown in a glasshouse under controlled environmental conditions and watered regularly as required. After 14±1 days post application (for post-emergence test), the test is evaluated by assessing the percentage damage caused to the plants in comparison with the untreated plots. The biological activities for post-emergence testing are shown below (Table 3 and Table 4) as a % visual injury.
# Oryza sativa (ORYSA) = test: Post-emergence glasshouse test, visual injury, ORYSA; type: in vivo; conditions: Table 4, post-emergence, 14±1 days post application
# Protocol: as §2, §3
# Zea mays (ZEAMX) = test: Post-emergence glasshouse test, visual injury, ZEAMX; type: in vivo; conditions: Table 4, post-emergence, 14±1 days post application
# Protocol: as §2, §3
# spring wheat (TRZAS) = test: Post-emergence glasshouse test, visual injury, TRZAS; type: in vivo; conditions: Table 4, post-emergence, 14±1 days post application
# Protocol: as §2, §3
# [4] = test system: Ipomoea hederacea (IPOHE); test: Post-emergence glasshouse test, visual injury, IPOHE; type: in vivo; conditions: Table 4, post-emergence, 14±1 days post application
# Protocol: as §2, §3
# Stellaria media (STEME) = test: Post-emergence glasshouse test, visual injury, STEME; type: in vivo; conditions: Table 4, post-emergence, 14±1 days post application
# Protocol: as §2, §3
structure (smiles),measurement,setting,value
Cc1cc(-c2cnc(NCc3ccncc3)nc2C2CC2)on1 [Compound 20],pest or weed control at 500 g/ha,[1],0%
same,pest or weed control at 500 g/ha,[2],0%
same,pest or weed control at 500 g/ha,"Veronica persica (VERPE); Table 3, post-emergence",30%
same,pest or weed control at 125 g/ha,"Veronica persica (VERPE); Table 4, post-emergence",50%
same,pest or weed control at 250 g/ha,"Veronica persica (VERPE); Table 4, post-emergence",60%
same,pest or weed control at 500 g/ha,"Veronica persica (VERPE); Table 4, post-emergence",70%
same,pest or weed control at 1000 g/ha,"Veronica persica (VERPE); Table 4, post-emergence",90%
same,pest or weed control at 500 g/ha,"[3]; Table 3, post-emergence",80%
same,pest or weed control at 125 g/ha,"[3]; Table 4, post-emergence",0%
same,pest or weed control at 250 g/ha,"[3]; Table 4, post-emergence",0%
same,pest or weed control at 500 g/ha,"[3]; Table 4, post-emergence",50%
same,pest or weed control at 1000 g/ha,"[3]; Table 4, post-emergence",90%
same,GLXMA % visual injury,Glycine max (GLXMA); 125 g/ha,30%
same,GLXMA % visual injury,Glycine max (GLXMA); 250 g/ha,20%
same,GLXMA % visual injury,Glycine max (GLXMA); 500 g/ha,40%
same,GLXMA % visual injury,Glycine max (GLXMA); 1000 g/ha,50%
same,ORYSA % visual injury,Oryza sativa (ORYSA); 125 g/ha,50%
same,ORYSA % visual injury,Oryza sativa (ORYSA); 250 g/ha,60%
same,ORYSA % visual injury,Oryza sativa (ORYSA); 500 g/ha,30%
same,ORYSA % visual injury,Oryza sativa (ORYSA); 1000 g/ha,60%
same,ZEAMX % visual injury,Zea mays (ZEAMX); 125 g/ha,20%
same,ZEAMX % visual injury,Zea mays (ZEAMX); 250 g/ha,50%
same,ZEAMX % visual injury,Zea mays (ZEAMX); 500 g/ha,50%
same,ZEAMX % visual injury,Zea mays (ZEAMX); 1000 g/ha,40%
same,TRZAS % visual injury,spring wheat (TRZAS); 125 g/ha,0%
same,TRZAS % visual injury,spring wheat (TRZAS); 250 g/ha,0%
same,TRZAS % visual injury,spring wheat (TRZAS); 500 g/ha,30%
same,TRZAS % visual injury,spring wheat (TRZAS); 1000 g/ha,20%
same,IPOHE % visual injury,[4]; 125 g/ha,0%
same,IPOHE % visual injury,[4]; 250 g/ha,0%
same,IPOHE % visual injury,[4]; 500 g/ha,0%
same,IPOHE % visual injury,[4]; 1000 g/ha,30%
same,STEME % visual injury,Stellaria media (STEME); 125 g/ha,0%
same,STEME % visual injury,Stellaria media (STEME); 250 g/ha,30%
same,STEME % visual injury,Stellaria media (STEME); 500 g/ha,40%
same,STEME % visual injury,Stellaria media (STEME); 1000 g/ha,95%
C=COCCCNc1ncc(-c2cc(C)no2)c(C(C)C)n1 [Compound 35],pest or weed control at 500 g/ha,[1],0%
same,pest or weed control at 500 g/ha,[2],60%
same,pest or weed control at 500 g/ha,"Veronica persica (VERPE); Table 3, post-emergence",98%
same,pest or weed control at 500 g/ha,"[3]; Table 3, post-emergence",0%
COc1ccc(CNc2ncc(-c3onc(C)c3C)c(-c3ccco3)n2)cc1 [Compound 77],pest or weed control at 500 g/ha,[1],70%
same,pest or weed control at 500 g/ha,[2],80%
same,pest or weed control at 500 g/ha,"Veronica persica (VERPE); Table 3, post-emergence",70%
same,pest or weed control at 500 g/ha,"[3]; Table 3, post-emergence",70%
Cc1cc(-c2cnc(NCCCN3CCC(C)CC3)nc2-c2ccco2)on1 [Compound 25],pest or weed control at 500 g/ha,[1],0%
same,pest or weed control at 500 g/ha,[2],30%
same,pest or weed control at 500 g/ha,"Veronica persica (VERPE); Table 3, post-emergence",0%
same,pest or weed control at 500 g/ha,"[3]; Table 3, post-emergence",30%
Cc1cc(-c2cnc(NC3CCCCC3)nc2C(C)C)on1 [Compound 7],pest or weed control at 125 g/ha,[1],20%
same,pest or weed control at 250 g/ha,[1],20%
same,pest or weed control at 125 g/ha,[2],80%
same,pest or weed control at 250 g/ha,[2],100%
same,pest or weed control at 125 g/ha,"Veronica persica (VERPE); Table 3, post-emergence",60%
same,pest or weed control at 250 g/ha,"Veronica persica (VERPE); Table 3, post-emergence",100%
same,pest or weed control at 125 g/ha,"[3]; Table 3, post-emergence",80%
same,pest or weed control at 250 g/ha,"[3]; Table 3, post-emergence",100%
CCN(CC)c1ncc(-c2cc(C)no2)c(C(C)C)n1 [Compound 10],pest or weed control at 250 g/ha,[1],0%
same,pest or weed control at 250 g/ha,[2],30%
same,pest or weed control at 250 g/ha,"Veronica persica (VERPE); Table 3, post-emergence",0%
same,pest or weed control at 250 g/ha,"[3]; Table 3, post-emergence",0%
Cc1ncc(-c2cnc(NC3CCCC3)nc2C(C)C)s1 [Compound 123],pest or weed control at 62 g/ha,[1],0%
same,pest or weed control at 62 g/ha,[2],0%
same,pest or weed control at 62 g/ha,"Veronica persica (VERPE); Table 3, post-emergence",50%
same,pest or weed control at 62 g/ha,"[3]; Table 3, post-emergence",0%
CC(=O)N1CCN(c2ncc(-c3cc(C)no3)c(-c3ccncc3)n2)CC1 [Compound 59],pest or weed control at 500 g/ha,[1],50%
same,pest or weed control at 500 g/ha,[2],0%
same,pest or weed control at 500 g/ha,"Veronica persica (VERPE); Table 3, post-emergence",90%
same,pest or weed control at 500 g/ha,"[3]; Table 3, post-emergence",0%
Cc1cc(-c2cnc(NCc3ccc4c(c3)OCO4)nc2C(C)(C)C)on1 [Compound 54],pest or weed control at 500 g/ha,[1],5%
same,pest or weed control at 500 g/ha,[2],40%
same,pest or weed control at 500 g/ha,"Veronica persica (VERPE); Table 3, post-emergence",99%
same,pest or weed control at 500 g/ha,"[3]; Table 3, post-emergence",40%
Cc1cc(-c2cnc(NCCN3CCCC3=O)nc2C2CC2)on1 [Compound 30],pest or weed control at 500 g/ha,[1],0%
same,pest or weed control at 500 g/ha,[2],70%
same,pest or weed control at 500 g/ha,"Veronica persica (VERPE); Table 3, post-emergence",0%
same,pest or weed control at 500 g/ha,"[3]; Table 3, post-emergence",60%
"Cc1cc(-c2cnc(NC3CCCC3)nc2C2CC2)on1 [Compound 13, N-cyclopentyl-4-cyclopropyl-5-(3-methyl-1,2-oxazol-5-yl)pyrimidin-2-amine]",pest or weed control at 125 g/ha,[1],40%
same,pest or weed control at 250 g/ha,[1],80%
same,pest or weed control at 125 g/ha,[2],80%
same,pest or weed control at 250 g/ha,[2],100%
same,pest or weed control at 125 g/ha,"Veronica persica (VERPE); Table 3, post-emergence",70%
same,pest or weed control at 250 g/ha,"Veronica persica (VERPE); Table 3, post-emergence",100%
same,pest or weed control at 125 g/ha,"[3]; Table 3, post-emergence",80%
same,pest or weed control at 250 g/ha,"[3]; Table 3, post-emergence",100%
Cc1cc(-c2cnc(NC3CCC3)nc2C(C)C)on1 [Compound 14],pest or weed control at 500 g/ha,[1],50%
same,pest or weed control at 500 g/ha,[2],100%
same,pest or weed control at 500 g/ha,"Veronica persica (VERPE); Table 3, post-emergence",100%
same,pest or weed control at 500 g/ha,"[3]; Table 3, post-emergence",100%
Cc1cc(-c2cnc(NC3CCOCC3)nc2C(C)C)on1 [Compound 6],pest or weed control at 125 g/ha,[1],50%
same,pest or weed control at 250 g/ha,[1],20%
same,pest or weed control at 125 g/ha,[2],90%
same,pest or weed control at 250 g/ha,[2],98%
same,pest or weed control at 125 g/ha,"Veronica persica (VERPE); Table 3, post-emergence",90%
same,pest or weed control at 250 g/ha,"Veronica persica (VERPE); Table 3, post-emergence",100%
same,pest or weed control at 125 g/ha,"[3]; Table 3, post-emergence",60%
same,pest or weed control at 250 g/ha,"[3]; Table 3, post-emergence",100%
Cc1cc(-c2cnc(N3CCC(O)CC3)nc2C2CC2)on1 [Compound 71],pest or weed control at 500 g/ha,[1],0%
same,pest or weed control at 500 g/ha,[2],60%
same,pest or weed control at 500 g/ha,"Veronica persica (VERPE); Table 3, post-emergence",40%
same,pest or weed control at 500 g/ha,"[3]; Table 3, post-emergence",90%
Cc1cccc(CNc2ncc(-c3cc(C)no3)c(C(C)C)n2)c1 [Compound 99],pest or weed control at 62 g/ha,[1],30%
same,pest or weed control at 62 g/ha,[2],70%
same,pest or weed control at 62 g/ha,"Veronica persica (VERPE); Table 3, post-emergence",80%
same,pest or weed control at 62 g/ha,"[3]; Table 3, post-emergence",60%
Cc1cc(-c2cnc(NC3CCCC3)nc2-c2ccc(C)o2)on1 [Compound 24],pest or weed control at 500 g/ha,[1],0%
same,pest or weed control at 500 g/ha,[2],70%
same,pest or weed control at 500 g/ha,"Veronica persica (VERPE); Table 3, post-emergence",0%
same,pest or weed control at 500 g/ha,"[3]; Table 3, post-emergence",50%
COc1cc(CNc2ncc(-c3cc(C)no3)c(C(C)C)n2)cc(OC)c1 [Compound 15],pest or weed control at 1000 g/ha,[1]; 1000 g/ha,0%
same,pest or weed control at 1000 g/ha,[2]; 1000 g/ha,30%
same,pest or weed control at 1000 g/ha,"Veronica persica (VERPE); Table 3, post-emergence",100%
same,pest or weed control at 1000 g/ha,"[3]; Table 3, post-emergence",60%
Cc1ccc(CNc2ncc(-c3cc(C)no3)c(C(C)C)n2)cc1 [Compound 100],pest or weed control at 62 g/ha,[1],0%
same,pest or weed control at 62 g/ha,[2],80%
same,pest or weed control at 62 g/ha,"Veronica persica (VERPE); Table 3, post-emergence",95%
same,pest or weed control at 62 g/ha,"[3]; Table 3, post-emergence",80%
COCCCNc1ncc(-c2cc(C)no2)c(C(C)C)n1 [Compound 32],pest or weed control at 500 g/ha,[1],0%
same,pest or weed control at 500 g/ha,[2],100%
same,pest or weed control at 500 g/ha,"Veronica persica (VERPE); Table 3, post-emergence",90%
same,pest or weed control at 500 g/ha,"[3]; Table 3, post-emergence",90%
